pIC50: −log10 of the molar value.
biological target: T1, human calcium-sensing receptor (CaSR) (Homo sapiens, UniProt P41180); test: Inhibitory activity on calcium-sensing receptor (CaSR), intracellular calcium increase as indicator (FLIPR, CHO/hCaSR); format: cell-based; conditions: CHO cells stably expressing human CaSR; inhibition of intracellular Ca increase induced by extracellular CaCl2
T1 construct: expressed in transfected cells
T1 sequence (P41180 20-1078): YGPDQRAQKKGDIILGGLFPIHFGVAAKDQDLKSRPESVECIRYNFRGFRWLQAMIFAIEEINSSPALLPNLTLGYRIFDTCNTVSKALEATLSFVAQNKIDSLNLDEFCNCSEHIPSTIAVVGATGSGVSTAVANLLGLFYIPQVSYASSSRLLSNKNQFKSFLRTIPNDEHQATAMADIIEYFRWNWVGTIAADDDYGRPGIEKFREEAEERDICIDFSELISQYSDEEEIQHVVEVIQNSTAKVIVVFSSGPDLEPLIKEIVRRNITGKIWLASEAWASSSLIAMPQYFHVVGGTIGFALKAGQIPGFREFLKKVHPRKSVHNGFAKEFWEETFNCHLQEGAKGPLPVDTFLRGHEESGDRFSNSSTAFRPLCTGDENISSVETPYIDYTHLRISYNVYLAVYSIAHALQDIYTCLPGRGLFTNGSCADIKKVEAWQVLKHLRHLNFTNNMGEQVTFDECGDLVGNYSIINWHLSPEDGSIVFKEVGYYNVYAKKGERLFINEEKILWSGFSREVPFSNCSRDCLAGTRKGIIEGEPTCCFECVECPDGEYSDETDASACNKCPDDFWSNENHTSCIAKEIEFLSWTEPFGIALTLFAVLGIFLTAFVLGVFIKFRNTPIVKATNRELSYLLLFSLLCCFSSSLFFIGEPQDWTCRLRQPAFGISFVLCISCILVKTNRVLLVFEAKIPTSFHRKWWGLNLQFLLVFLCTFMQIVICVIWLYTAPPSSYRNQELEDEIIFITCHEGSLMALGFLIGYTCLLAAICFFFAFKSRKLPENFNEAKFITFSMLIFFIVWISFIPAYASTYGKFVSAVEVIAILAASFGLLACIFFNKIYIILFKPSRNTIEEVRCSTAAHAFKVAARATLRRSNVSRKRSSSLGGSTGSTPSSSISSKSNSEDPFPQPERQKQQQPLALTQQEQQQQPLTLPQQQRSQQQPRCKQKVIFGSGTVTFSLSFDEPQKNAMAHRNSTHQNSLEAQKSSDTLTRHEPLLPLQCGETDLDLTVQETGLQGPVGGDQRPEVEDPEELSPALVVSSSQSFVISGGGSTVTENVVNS
Description: Evaluation of inhibitory activity on calcium-sensing receptor (CaSR) using intracellular calcium increase as an indicator
The preparation which is prepared by adding CHO/hCaSR to F12 medium (manufactured by Invitrogen) containing 10% fetal bovine serum to have 2×10^5 cells/mL was applied to a 384-well in an amount of 50 μL/well, and then incubated overnight in a CO2 incubator. The culture supernatant was completely removed, the assay buffer (20 mM HEPES, HBSS (Ca and Mg free) containing 2.5 mM probenecid, pH 7.4) containing Calcium 3 (manufactured by Molecular Devices), i.e., a fluorescent intracellular calcium indicator, was added thereto in an amount of 25 μL/well, and the mixture was maintained for 1 hour in a CO2 incubator. Meanwhile, Calcium 3 was prepared according to the protocol enclosed in FLIPR Calcium 3 Assay Kit (manufactured by Molecular Devices). After maintaining it for 1 hour, a solution in which the test compound is prepared to have 2.1 to 20,000 nM (final concentration of 1.05 to 10,000 nM) by an assay buffer was added thereto in an amount of 25 μL/well, and maintained for 15 minutes in a CO2 incubator. Then, the CaCl2 solution prepared to have […] by using the assay buffer was added in an amount of 25 μL/well, and the resulting intracellular Ca increase (i.e., fluorescence intensity) was measured over time using a fluorescence imaging plate reader (FLIPR, manufactured by Molecular Devices). From the data obtained, the difference between the fluorescence intensity before the addition of CaCl2 solution and the maximum fluorescence intensity after the addition of CaCl2 solution was calculated, and the 50% inhibition concentration (IC50) of the test compound was obtained.

Structure (SMILES)	pIC50
CCC[C@@H](OC[C@H](O)CN1CCC[C@H]1Cc1ccc(C)c(F)c1)c1cccc(Cl)c1CCC(=O)O [Example 125]	≥ 5.50
Cc1ccc(C[C@@H]2CCCN2C[C@@H](O)CO[C@H](C)c2cc(F)cc(F)c2CCC(=O)O)cc1Cl [Example 132]	≥ 5.49
C[C@@H](OC[C@H](O)CN1CCC[C@H]1Cc1ccc(Cl)c(Cl)c1)c1cc(F)cc(F)c1CCC(=O)O [Example 106]	≥ 5.51
Cc1ccc(C[C@@H]2CCCN2C[C@@H](O)CO[C@H](C)c2cc(F)c(F)cc2CCC(=O)O)cc1F [Example 26]	≥ 5.48
Cc1ccc(C[C@@H]2CCCN2C[C@@H](O)CO[C@H](C)c2cc(F)c(Cl)cc2CCC(=O)O)cc1F [Example 156]	≥ 5.49
C[C@@H](OC[C@H](O)CN1CCC[C@H]1Cc1ccc(Cl)c(Cl)c1)c1cc(F)c(F)cc1CCC(=O)O [Example 177]	≥ 5.51
Cc1ccc(C[C@@H]2CCCN2C[C@@H](O)CO[C@H](C)c2cc(C(F)(F)F)ccc2CCCCC(=O)O)cc1F [Example 60]	≥ 5.53
Cc1ccc(C[C@@H]2CCCN2C[C@@H](O)CO[C@H](C)c2ccc(F)cc2CCCCC(=O)O)cc1F [Example 54]	≥ 5.49
CC[C@@H](OC[C@H](O)CN1CCC[C@H]1Cc1ccc(Cl)c(Cl)c1)c1cccc(C)c1CCC(=O)O [Example 120]	≥ 5.50
Cc1ccc(C[C@@H]2CCCN2C[C@@H](O)CO[C@H](C)c2ccccc2/C=C/C(=O)O)cc1F [Example 1, (2E)-3-{2-[(1R)-1-({(2R)-3-[(2S)-2-(3-Fluoro-4-methylbenzyl)pyrrolidin-1-yl]-2-hydroxypropyl}oxy)ethyl]phenyl}prop-2-enoic acid]	≥ 5.44
Cc1ccc(C[C@@H]2CCCN2C[C@@H](O)CO[C@H](C)c2cccc(Cl)c2CCC(=O)O)cc1Cl [Example 150]	≥ 5.49
CC[C@@H](OC[C@H](O)CN1CCC[C@H]1Cc1ccc(C)c(F)c1)c1cc(F)ccc1CCC(=O)O [Example 43]	≥ 5.47
CCC[C@@H](OC[C@H](O)CN1CCC[C@H]1Cc1ccc(C)c(F)c1)c1ccccc1CCC(=O)O [Example 21]	≥ 5.47
CCc1cc(C[C@@H]2CCCN2C[C@@H](O)CO[C@H](CC)c2cccc(OC)c2CCC(=O)O)ccc1Cl [Example 116]	≥ 5.51
Cc1ccc(C[C@@H]2CCCN2C[C@@H](O)CO[C@H](C)c2cccc(F)c2CCC(=O)O)cc1F [Example 6, 3-{2-Fluoro-6-[(1R)-1-({(2R)-3-[(2S)-2-(3-fluoro-4-methylbenzyl)pyrrolidin-1-yl]-2-hydroxypropyl}oxy)ethyl]phenyl}propanoic acid]	≥ 5.46
Cc1ccc(C[C@@H]2CCCN2C[C@@H](O)CO[C@H](C)c2cccc(OC(C)C)c2CCC(=O)O)cc1F [Example 73]	≥ 5.50
Cc1ccc(C[C@@H]2CCCN2C[C@@H](O)CO[C@H](C)c2cccc(C)c2CCC(=O)O)cc1Cl [Example 169]	≥ 5.47
Cc1cccc([C@@H](C)OC[C@H](O)CN2CCC[C@H]2Cc2ccc(Cl)c(Cl)c2)c1CCC(=O)O [Example 162]	≥ 5.49
CC[C@@H](OC[C@H](O)CN1CCC[C@H]1Cc1ccc(C)c(Cl)c1)c1cc(F)c(F)cc1CCC(=O)O [Example 144]	≥ 5.50
CC[C@@H](OC[C@H](O)CN1CCC[C@H]1Cc1ccc(C)c(F)c1)c1cc(Cl)ccc1CCC(=O)O [Example 94]	≥ 5.49
Cc1ccc(C[C@@H]2CCCN2C[C@@H](O)CO[C@H](C)c2ccccc2CCC(=O)O)cc1Cl [Example 84]	≥ 5.46
CCc1cccc(C[C@@H]2CCCN2C[C@@H](O)CO[C@H](C)c2ccccc2CCC(=O)O)c1 [Example 39]	≥ 5.44
Cc1ccc([C@@H](C)OC[C@H](O)CN2CCC[C@H]2Cc2ccc(Cl)c(Cl)c2)c(CCC(=O)O)c1 [Example 97]	≥ 5.49
CC[C@@H](OC[C@H](O)CN1CCC[C@H]1Cc1ccc(Cl)c(F)c1)c1cc(F)ccc1CCC(=O)O [Example 135]	≥ 5.49

Structure (SMILES)	pIC50
CCc1cc(C[C@@H]2CCCN2C[C@@H](O)CO[C@H](C)c2cc(F)ccc2CCC(=O)O)ccc1Cl [Example 99]	≥ 5.49
Cc1ccc(C[C@@H]2CCCN2C[C@@H](O)CO[C@@H](c2ccccc2CCC(=O)O)C2CC2)cc1F [Example 29]	≥ 5.47
Cc1ccc(C[C@@H]2CCCN2C[C@@H](O)CO[C@H](C)c2cccc(OC(C)C)c2CCCCC(=O)O)cc1F [Example 74]	≥ 5.52
Cc1ccc(C[C@@H]2CCN2C[C@@H](O)CO[C@H](C)c2ccccc2CCCCC(=O)O)cc1F [Example 15, 5-{2-[(1R)-1-({(2R)-3-[(2R)-2-(3-Fluoro-4-methylbenzyl)azetidin-1-yl]-2-hydroxypropyl}oxy)ethyl]phenyl}pentanoic acid]	≥ 5.46
Cc1ccc(C[C@@H]2CCCN2C[C@@H](O)CO[C@H](C)c2cc(F)cc(F)c2CCC(=O)O)cc1F [Example 27]	≥ 5.48
Cc1ccc(C[C@@H]2C[C@@H](F)CN2C[C@@H](O)CO[C@H](C)c2ccccc2CCC(=O)O)cc1F [Example 48]	≥ 5.46
CC[C@@H](OC[C@H](O)CN1CCC[C@H]1Cc1ccc(Cl)c(Cl)c1)c1cc(F)c(C)cc1CCC(=O)O [Example 118]	≥ 5.52
CCC[C@@H](OC[C@H](O)CN1CCC[C@H]1Cc1ccc(C)c(F)c1)c1cccc(C)c1CCC(=O)O [Example 62]	≥ 5.48
Cc1ccc(C[C@@H]2CCCN2C[C@@H](O)CO[C@H](C)c2ccccc2CCCCCC(=O)O)cc1F [Example 76]	≥ 5.48
CCc1cc(C[C@@H]2CCCN2C[C@@H](O)CO[C@H](CC)c2cc(F)c(F)cc2CCC(=O)O)ccc1Cl [Example 121]	≥ 5.52
CC[C@@H](OC[C@H](O)CN1CCC[C@H]1Cc1ccc(C)c(Cl)c1)c1cccc(Cl)c1CCC(=O)O [Example 142]	≥ 5.50
CCc1cc(C[C@@H]2CCCN2C[C@@H](O)CO[C@H](C)c2ccc(Cl)cc2CCC(=O)O)ccc1Cl [Example 161]	≥ 5.50
CC[C@@H](OC[C@H](O)CN1CCC[C@H]1Cc1ccc(C)c(F)c1)c1cc(F)c(F)cc1CCC(=O)O [Example 154]	≥ 5.49
C[C@@H](OC[C@H](O)CN1CCC[C@H]1Cc1ccc(Cl)c(Cl)c1)c1cccc(F)c1CCC(=O)O [Example 92]	≥ 5.49
Cc1ccc([C@@H](C)OC[C@H](O)CN2CCC[C@H]2Cc2ccc(C)c(F)c2)c(CCCCC(=O)O)c1 [Example 53]	≥ 5.48
CC[C@@H](OC[C@H](O)CN1CCC[C@H]1Cc1ccc(C)c(Cl)c1)c1ccc(Cl)cc1CCC(=O)O [Example 129]	≥ 5.50
COc1cccc([C@@H](C)OC[C@H](O)CN2CCC[C@H]2Cc2ccc(C)c(F)c2)c1CCC(=O)O [Example 18]	≥ 5.47
CCc1cc(C[C@@H]2CCCN2C[C@@H](O)CO[C@H](CC)c2ccc(C)cc2CCC(=O)O)ccc1Cl [Example 103]	≥ 5.50
CC[C@@H](OC[C@H](O)CN1CCC[C@H]1Cc1ccc(C)c(F)c1)c1ccccc1CCC(=O)O [Example 19]	≥ 5.46
CCc1cc(C[C@@H]2CCCN2C[C@@H](O)CO[C@H](CC)c2cc(F)cc(F)c2CCC(=O)O)ccc1Cl [Example 111]	≥ 5.52
COc1cccc([C@@H](C)OC[C@H](O)CN2CCC[C@H]2Cc2ccc(Cl)c(Cl)c2)c1CCC(=O)O [Example 164]	≥ 5.50
Cc1ccc(C[C@@H]2CCCN2C[C@@H](O)CO[C@H](C)c2ccc(F)c(C)c2CCC(=O)O)cc1F [Example 20]	≥ 5.47
C[C@@H](OC[C@H](O)CN1CCC[C@H]1Cc1ccc(F)c(Cl)c1)c1ccccc1CCC(=O)O [Example 83]	≥ 5.46
